Data: the NIST ThermoML archive (doi:10.1021/acs.jced.8b01135)
Several values for one entry are separate records, joined by “and”; a condition that tells them apart may be missing. Equal entries are not always repeated.

Assays:
[1] = Liquid; for speed of sound: Frequency=3 MHz, Single path-length method; for mass density: Vibrating tube method; for viscosity: Concentric cylinders viscometry
[2] = xn = mol fraction of the nth substance listed; conditions: 102 kPa, Liquid, x2 = 0; for speed of sound: Frequency=3 MHz, Single path-length method; for mass density: Vibrating tube method; for viscosity: Concentric cylinders viscometry

CCCCCCCCC1CCCCC1 [octylcyclohexane]
[1], 102 kPa
Conditions	mass density	speed of sound [m/s]	viscosity [mPa·s]
288.15 K	817.58 kg/m3	1405.5	–
293.15 K	814.13 kg/m3	1386.4	3.52
298.15 K	810.67 kg/m3	1367.4	–
303.15 K	807.21 kg/m3 and 807.2 kg/m3	1348.6	2.79
313.15 K	800.28 kg/m3	1311.6	2.26
323.15 K	793.35 kg/m3	1275.5	1.87
333.15 K	786.41 kg/m3	1240.3	1.57

CCCCCCCCCCCCC1CCCCC1 [dodecylcyclohexane]
[1], 102 kPa
Conditions	mass density [kg/m3]	speed of sound [m/s]	viscosity
288.15 K	825.71	1441.5	–
293.15 K	822.36	1422.9	7.77 mPa·s and 7.76 mPa·s
298.15 K	819.02	1404.8	–
303.15 K	815.68	1386.3	5.81 mPa·s
313.15 K	809.03	1350.5	4.48 mPa·s
323.15 K	802.38	1315.4	3.55 mPa·s
333.15 K	795.75	1281.4	2.87 mPa·s and 2.88 mPa·s

CCCCCCCCCCCC [dodecane] + CCCCCCCCC1CCCCC1
[2]
Conditions	mass density [kg/m3]	speed of sound [m/s]	viscosity [mPa·s]
288.15 K	752.35	1317.2	–
293.15 K	748.72	1297.7	1.49
298.15 K	745.09	1278.2	–
303.15 K	741.46	1259	1.27
313.15 K	734.19	1221.1	1.08
323.15 K	726.88	1184	0.934
333.15 K	719.53	1147.8	0.813

CCCCCCCC1CCCCC1 [heptylcyclohexane]
[1], 102 kPa
Conditions	mass density	speed of sound [m/s]	viscosity [mPa·s]
288.15 K	814.51 kg/m3	1393.6	–
293.15 K	811 kg/m3	1374.2	2.8
298.15 K	807.49 kg/m3	1355.1	–
303.15 K	803.99 kg/m3 and 803.98 kg/m3	1336.1	2.25
313.15 K	796.95 kg/m3	1298.8	1.85
323.15 K	789.91 kg/m3	1262.2	1.55
333.15 K	782.85 kg/m3	1226.7	1.31

CCCCCCCCCCCC [dodecane] + CCCC1CCCCC1
[2]
Conditions	mass density [kg/m3]	speed of sound [m/s]	viscosity [mPa·s]
288.15 K	752.35	1317.2	–
293.15 K	748.72	1297.7	1.49
298.15 K	745.09	1278.2	–
303.15 K	741.46	1259	1.27
313.15 K	734.19	1221.1	1.08
323.15 K	726.88	1184	0.934
333.15 K	719.53	1147.8	0.813

CCCC1CCCCC1 [1-cyclohexylpropane]
[1]
Conditions	mass density, 102 kPa [kg/m3]	speed of sound, 88 kPa [m/s]	speed of sound, 102 kPa [m/s]	viscosity, 102 kPa [mPa·s]
288.15 K	797.42	–	1328.6	–
293.15 K	793.53	1307.7	1307.7	0.981
298.15 K	789.63	–	1287.1	–
303.15 K	785.72	1266.6	1266.6	0.856
313.15 K	777.88	1226.2	1226.2	0.75
323.15 K	770	1186.5	1186.5	0.668
333.15 K	762.09	1147.7	1147.7	0.594

CCCCCCCCCCCC [dodecane] + CCCCCCC1CCCCC1
[2]
Conditions	mass density [kg/m3]	speed of sound [m/s]	viscosity [mPa·s]
288.15 K	752.35	1317.2	–
293.15 K	748.72	1297.7	1.49
298.15 K	745.09	1278.2	–
303.15 K	741.46	1259	1.27
313.15 K	734.19	1221.1	1.08
323.15 K	726.88	1184	0.934
333.15 K	719.53	1147.8	0.813
